This note sets out measurements from US9993518B2, “Association of a tetrapeptide and a glyceryl ester for treating androgenic alopecia” (PIERRE FABRE DERMO-COSMETIQUE, priority 2014, dated 2018).

What all share (type): cell-based
What all share (conditions): human hair follicles, 6 h, Control RQ = 1, average of two donors

The test system of one assay is KRT25 gene. Description: KRT25 gene expression in cultured human hair follicle bulbs, quantitative real-time PCR. As to the method: (§1) Hair follicle bulbs derived from plastic surgery waste (face lifts) from two donors were isolated by microdissection, cultured and treated for 6 hours with the active agents (acetyl tetrapeptide-3, glyceryl laurate, and the association thereof). RNA was extracted, assayed, reverse-transcribed and the expression of a panel of genes expressed in the pilosebaceous follicle was analyzed by quantitative real-time PCR.
(§2) The analysis of the results generated in this study led, for each condition applied and each gene of interest studied, to the calculation of a relative quantity (RQ). RQ corresponds to the expression level of a gene relative to its basal expression level (expression level obtained for the Control condition, the RQ of which is set to 1). Thus, the modulation of a gene's expression level is considered significant when: • the RQ is greater than or equal to 2: the gene is expressed two times more than in the Control condition • the RQ is less than or equal to 0.5: the gene is expressed two times less than in the Control condition.
(§3) The set of results presented below corresponds to the average results obtained for the two donors of the study.
In general terms: Real-time PCR tracks product formation cycle by cycle.

A further assay has as its system SFRP1 gene. Description: SFRP1 gene expression in cultured human hair follicle bulbs, quantitative real-time PCR. On the procedure: as §1, §2, §3
The test system of the next assay is KRT27 gene. Put plainly: KRT27 gene expression in cultured human hair follicle bulbs, quantitative real-time PCR. As to the method:
as §1, §2, §3

For another assay, the system named is FZD1 gene. Put plainly: FZD1 gene expression in cultured human hair follicle bulbs, quantitative real-time PCR. On the procedure:
as §1, §2, §3

Another assay relates to KRT17 gene. Description: KRT17 gene expression in cultured human hair follicle bulbs, quantitative real-time PCR. As to the method: as §1, §2, §3
The subject of another assay is KRT81 gene. Put plainly: KRT81 gene expression in cultured human hair follicle bulbs, quantitative real-time PCR. As to the method: as §1, §2, §3

Regarding “acetyl tetrapeptide-3 (Ac-KGHK-NH2) [ATP-3, CAS number 827306-88-7]”, the “RQ (relative quantity), expression level of the KRT25 gene” value in the assay with KRT25 gene (20 μM) was found to be 1.7. For the same compound, the “RQ (relative quantity), expression level of the SFRP1 gene” value in the assay on SFRP1 gene (20 μM) is 1.3. Besides, the “RQ (relative quantity), expression level of the KRT27 gene” value in the assay with KRT27 gene (20 μM) turned out to be 1.4. In the assay on FZD1 gene (20 μM), the “RQ (relative quantity), expression level of the FZD1 gene” value worked out at 1.2. For the same compound, in the assay on KRT17 gene (20 μM), the “RQ (relative quantity), expression level of the KRT17 gene” value amounted to 0.8. For the same compound, in the assay with KRT81 gene (20 μM), the “RQ (relative quantity), expression level of the KRT81 gene” value was 1.5.

Turning to `CCCCCCCCCCCC(=O)OCC(O)CO` (stereo not drawn) [GL, glyceryl laurate], the “RQ (relative quantity), expression level of the KRT25 gene” value with KRT25 gene (10 μM) worked out at 1.3. For the same compound, in the assay on SFRP1 gene (10 μM), the “RQ (relative quantity), expression level of the SFRP1 gene” value stood at 0.9. For the same compound, the “RQ (relative quantity), expression level of the KRT27 gene” value in the assay with KRT27 gene (10 μM) was 1.3. For the same compound, the “RQ (relative quantity), expression level of the FZD1 gene” value in the assay on FZD1 gene (10 μM) is 1.3. Further, the “RQ (relative quantity), expression level of the KRT17 gene” value in the assay on KRT17 gene (10 μM) amounted to 1.1. Also, the “RQ (relative quantity), expression level of the KRT81 gene” value in the assay on KRT81 gene (10 μM) is recorded as 1.8.
